# Reference: patent US6143715A, “Hepatitis C inhibitor peptide analogues” (priority 1998, dated 2000)
# Read-outs that look alike come from different tables or passages of the source. Starred links: 1 amine or outer side, 2 acyl side, 3 side chain; linkers in the order of their positions; H or OH if unused. Non-standard residues stand in square brackets, D forms with d. Residues, ends and D or L forms follow the SMILES beside them. ξ: configuration not given here. *: point of attachment. NH(1S-phenylethyl) = C[C@H](N*)c1ccccc1; X21 = CCCN(N*)C(=O)CCc1nc(-c2ccccn2)no1; Hyp = O=C(O)[C@@H]1C[C@@H](O)CN1; azaNva = CCCN(N[*:1])C(=O)[*:2]; AzaAla = CN(N[*:1])C(=O)[*:2]; X7 = CCCCCN(N[*:1])C(=O)[*:2]; X2 = CCCN(N*)C(=O)OCc1ccccc1; X5 = CCCN(N*)C(=O)CCc1ccccc1; X6 = CCCC(N*)C(=O)CCc1ccccc1; Nva = CCC[C@H](N)C(=O)O; ξNva = CCCC(N)C(=O)O; ξAbu = CCC(N)C(=O)O; Bn = c1ccc(C*)cc1; CF3 = FC(F)(F)*
# Tests used:
# [1] = target: T1, HCV NS3 protease type 1b/NS4A cofactor peptide (Hepatitis C virus genotype 1b, UniProt P26663); assay: biochemical; design: species or system hepatitis C virus (HCV) genotype 1b
# T1 construct: recombinant HCV NS3 protease (amino acid 1027 to 1206) was cloned; made in house; host or cells: E. coli BL21(DE3)pLysS
# T1 sequence (P26663 1027-1206, other chains not shown): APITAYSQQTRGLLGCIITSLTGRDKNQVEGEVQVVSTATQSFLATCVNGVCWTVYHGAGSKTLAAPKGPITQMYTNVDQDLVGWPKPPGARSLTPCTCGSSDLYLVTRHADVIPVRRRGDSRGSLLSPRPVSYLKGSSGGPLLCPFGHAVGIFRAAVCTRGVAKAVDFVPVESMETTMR
# Text: a) Cloning, expression and purification of the recombinant HCV NS3 protease type lb
# Serum from an HCV-infected patient was obtained through an external collaboration (Bernard Willems MD, Hopital St-Luc, Montreal, Canada and Dr. Donald Murphy, Laboratoire de Sante Publique du Quebec, Ste-Anne de Bellevue, Canada). An engineered full-length cDNA template of the HCV genome was constructed from DNA fragments obtained by reverse transcription-PCR (RT-PCR) of serum RNA and using specific primers selected on the basis of homology between other genotype lb strains. […] A DNA fragment encoding the polyprotein precursor (NS3/NS4A/NS4B/NS5A/NS5B) was generated by PCR and introduced into eucaryotic expression vectors.
# The NS3 protease expression in E. coli BL21(DE3)pLysS was induced by incubation with 1 mM IPTG for 3 h at 22° C. […] The cells were resuspended in lysis buffer (3.0 mL/g) consisting of 25 mM sodium phosphate, pH 7.5, 10% glycerol (v/v), 1 mM EDTA, 0.01% NP-40 and stored at -80° C. Cells were thawed and homogenized following the addition of 5 mM DTT. Magnesium chloride and DNase were then added to the homogenate at final concentrations of 20 mM and 20 μg/mL respectively. After a 25 min incubation at 4° C., the homogenate was sonicated and centrifuged at 15000× g for 30 min at 4° C. The pH of the supernatant was then adjusted to 6.5 using a 1M sodium phosphate solution.
# Briefly, the supernatant from the bacterial extract was loaded on a SP HiTrap column (Pharmacia) previously equilibrated at a flow rate of 2 mL/min in buffer A (50 mM sodium phosphate, pH 6.5, 10% glycerol, 1 mM EDTA, 5 mM DTT, 0.01% NP-40). The column was then washed with buffer A containing 0.15 M NaCl and the protease eluted by applying 10 column volumes of a linear 0.15 to 0.3 M NaCl gradient. NS3 protease-containing fractions were pooled and diluted to a final NaCl concentration of 0.1 M. The enzyme was further purified on a HiTrap Heparin column (Pharmacia) equilibrated in buffer B (25 mM sodium phosphate, pH 7.5, 10% glycerol, 5 mM DTT, 0.01% NP-40). The sample was loaded at a flow rate of 3 mL/min. The column was then washed with buffer B containing 0.15 M NaCl at a flow rate of 1.5 mL/min. Two step washes were performed in the presence of buffer B containing 0.3 or 1M NaCl. […] Finally, the NS3 protease-containing fractions were applied on a Superdex 75 HiLoad 16/60 column (Pharmacia) equilibrated in buffer B containing 0.3 M NaCl.
# The enzyme was stored at -80° C. and was thawed on ice and diluted just prior to use.
# Recombinant HCV NS3 Protease/NS4A Cofactor Peptide Radiometric Assay
# The enzyme was stored at -80° C., thawed on ice and diluted just prior to use in the assay buffer containing the NS4A cofactor peptide.
# The substrate used for the NS3 protease/[…] cofactor peptide radiometric assay, DDIVPC-SMSYTW, is cleaved between the cysteine and the serine residues by the enzyme. The sequence DDIVPC-SMSYTW corresponds to the NS5A/NS5B natural cleavage site in which the cysteine residue in […] has been substituted for a proline. […] (molar ratio enzyme: cofactor 1:100) in the absence or presence of inhibitors. The separation of substrate from products is performed by adding avidin-coated agarose beads to the assay mixture followed by filtration.
# Assay buffer: 50 mM Tris HCl, pH 7.5, 30% (w/v) glycerol, 1 mg/mL BSA, 1 mM TCEP (TCEP added just prior to use from a 1 M stock solution in water)
# Substrate: […], […] final concentration (from a 2 mM stock solution in DMSO stored at -20° C. to avoid oxidation).
# [2] = target: porcine pancreatic elastase (Sus scrofa, UniProt P00772); assay: Specificity assay, porcine pancreatic elastase (pNA substrate); assay type: biochemical
# porcine pancreatic elastase, sequence (P00772 27-266): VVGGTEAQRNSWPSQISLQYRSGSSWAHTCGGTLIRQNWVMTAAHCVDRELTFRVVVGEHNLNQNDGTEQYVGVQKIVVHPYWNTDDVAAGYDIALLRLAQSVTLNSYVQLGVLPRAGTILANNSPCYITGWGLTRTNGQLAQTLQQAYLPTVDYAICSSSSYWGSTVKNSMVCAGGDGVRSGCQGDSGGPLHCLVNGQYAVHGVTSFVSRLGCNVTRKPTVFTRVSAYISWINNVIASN
# Method: The specificity of the compounds was determined against a variety of serine proteases: human leukocyte elastase, porcine pancreatic elastase and bovine pancreatic α-chymotrypsin and one cysteine protease: human liver cathepsin B. In all cases a 96-well plate format protocol using a calorimetric p-nitroanilide (pNA) substrate specific for each enzyme was used. Each assay included a 1 h enzyme-inhibitor pre-incubation at 30° C. followed by addition of substrate and hydrolysis to ≈30% conversion as measured on a UV Thermomax® microplate reader. Substrate concentrations were kept as low as possible compared to KM to reduce substrate competition. […] The final conditions for each assay were as follows:
# A representative example is summarized below for porcine pancreatic elastase:
# In a polystyrene flat-bottom 96-well plate were added using a Biomek liquid handler (Beckman):
# 40 μL of assay buffer (50 mM Tris-HCl pH 8, 50 mM NaCl, 0.1 mM EDTA);
# 20 μL of enzyme solution (50 mM Tris-HCl pH 8, 50 mM NaCl, 0.1 mM EDTA, 0.02% Tween-20, 40 nM porcine pancreatic elastase); and
# human leukocyte elastase = target: T2, human leukocyte elastase (Homo sapiens, UniProt P08246); assay: Specificity assay, human leukocyte elastase (pNA substrate); assay type: biochemical
# T2 sequence (P08246 30-267): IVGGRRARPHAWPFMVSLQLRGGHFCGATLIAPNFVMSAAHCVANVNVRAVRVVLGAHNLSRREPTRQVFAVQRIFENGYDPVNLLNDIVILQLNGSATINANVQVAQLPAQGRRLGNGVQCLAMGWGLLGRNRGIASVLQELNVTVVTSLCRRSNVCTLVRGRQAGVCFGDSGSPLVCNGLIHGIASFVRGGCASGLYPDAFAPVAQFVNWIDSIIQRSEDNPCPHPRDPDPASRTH
# Method: The specificity of the compounds was determined against a variety of serine proteases: human leukocyte elastase, porcine pancreatic elastase and bovine pancreatic α-chymotrypsin and one cysteine protease: human liver cathepsin B. In all cases a 96-well plate format protocol using a […] p-nitroanilide (pNA) substrate specific for each enzyme was used. Each assay included a 1 h enzyme-inhibitor pre-incubation at 30° C. followed by addition of substrate and hydrolysis to ≈30% conversion as measured on a UV Thermomax® microplate reader. Substrate concentrations were kept as low as possible compared to KM to reduce substrate competition. […] The final conditions for each assay were as follows:
# (§1) 50 mM Tris-HCl pH 8, 0.5 M Na2 SO4, 50 mM NaCl, 0.1 mM EDTA, 3% DMSO, 0.01% Tween-20 with;
# All other specificity assays were performed in a similar fashion.
# (§2) The percentage of inhibition was calculated using the formula:
# (§3) [1-(UVinh -UVblank)/(UVctl -UVblank))]×100
# [3] = target: bovine pancreatic α-chymotrypsin (Bos taurus, UniProt P00766, DEL14-15/DEL147-148); assay: Specificity assay, bovine pancreatic α-chymotrypsin (pNA substrate); assay type: biochemical; conditions: 1 h enzyme-inhibitor pre-incubation at 30° C., Succ-AAPF-pNA
# Method: The final conditions for each assay were as follows:
# as §1, §2, §3
# NS3 protease = NS3 protease (Hepatitis C virus genotype 1b, UniProt P26663); assay: Inhibition of NS3 protease by N-terminal cleavage product; assay type: biochemical; conditions: N-terminal cleavage product of an analogue of a natural substrate
# NS3 protease, sequence (P26663 1027-1206): as the sequence (P26663 1027-1206, other chains not shown) above
# HCV = conditions: as described in WO 97/06804; cited from earlier work
# human liver cathepsin B = human liver cathepsin B (Homo sapiens, UniProt P07858); assay: biochemical
# Method: The specificity of the compounds was determined against a variety of serine proteases: human leukocyte elastase, porcine pancreatic elastase and bovine pancreatic α-chymotrypsin and one cysteine protease: human liver cathepsin B. In all cases a 96-well plate format protocol using a calorimetric p-nitroanilide (pNA) substrate specific for each enzyme was used. Each assay included a 1 h enzyme-inhibitor pre-incubation at 30° C. followed by addition of substrate and hydrolysis to ≈30% conversion as measured on a UV Thermomax® microplate reader. Substrate concentrations were kept as low as possible compared to KM to reduce substrate competition.
# [4] = 1 h enzyme-inhibitor pre-incubation at 30° C., Succ-AAA-pNA
# [5] = 1 h enzyme-inhibitor pre-incubation at 30° C., Succ-AAV-pNA
# [6] = IC50: concentration required to obtain 50% inhibition in the NS3 protease/NS4A cofactor peptide radiometric assay, enzyme:cofactor 1:100, 40 min at 23° C.
Compound,IC50 [1] [µM],IC50 (human leukocyte elastase; [5]) [µM],other results
CCCN(NC(=O)[C@@H]1C[C@@H](OCc2ccccc2)CN1C(=O)[C@@H](NC(=O)[C@@H](NC(=O)[C@@H](CCC(=O)O)NC(=O)[C@H](CC(=O)O)NC(C)=O)[C@@H](C)CC)C(C)C)C(=O)NCC(=O)OCC [Compound 201] (Ac-D[dE]IV[Hyp](Bn)[azaNva]G-OEt),3.9,27.4,"IC50 [2, 4]: 168 µM"
CCCC(C=O)NC(=O)[C@@H]1C[C@@H](OCc2ccccc2)CN1C(=O)[C@@H](NC(=O)[C@@H](NC(=O)[C@@H](CCC(=O)O)NC(=O)[C@H](CC(=O)O)NC(C)=O)[C@@H](C)CC)C(C)C (stereo partly shown) [Compound 104] (Ac-D[dE]IV[Hyp](Bn)[ξNva]-aldehyde),0.14,7,"IC50 [3]: 8 µM; IC50 [2, 4]: 8 µM"
Ac-DDIVPC-OH [Ac-D-D-I-V-P-C-OH],–,–,inhibitory to the NS3 protease (NS3 protease): inhibitory
CCCC(NC(=O)[C@@H]1C[C@@H](OCc2ccccc2)CN1C(=O)[C@@H](NC(=O)[C@@H](NC(C)=O)C1CCCCC1)C(C)C)C(=O)C(=O)NCc1ccccc1 (stereo partly shown) [Compound 109],23,2,–
CCC[C@H](NC(=O)[C@@H]1C[C@@H](OCc2ccccc2)CN1C(=O)[C@@H](NC(=O)[C@@H](NC(=O)[C@@H](CCC(=O)O)NC(=O)[C@H](CC(=O)O)NC(C)=O)[C@@H](C)CC)C(C)C)C(=O)N[C@@H](C)c1ccccc1 [Compound 108] (Ac-D[dE]IV[Hyp](Bn)[Nva]-{NH(1S-phenylethyl)}),0.71,3,"IC50 [3]: > 300 µM; IC50 [2, 4]: > 300 µM"
"Nc1ccn([C@@H]2CS[C@H](CO)O2)c(=O)n1 (single isomer, unassigned) [3TC, (-) enantiomer of the nucleoside analogue cytosine-1,3-oxathiolane]",–,–,active against HCV (HCV): active against HCV
CCC(NC(=O)[C@@H]1C[C@@H](OCc2ccccc2)CN1C(=O)[C@@H](NC(=O)[C@@H](NC(=O)[C@@H](CCC(=O)O)NC(=O)[C@H](CC(=O)O)NC(C)=O)[C@@H](C)CC)C(C)C)C(=O)C(F)(F)F (stereo partly shown) [Compound 101] (Ac-D[dE]IV[Hyp](Bn)[ξAbu]-CF3),9.4,< 1.2,–
CCCCCN(NC(=O)[C@@H]1C[C@@H](OCc2ccccc2)CN1C(=O)[C@@H](NC(=O)[C@@H](NC(=O)[C@@H](CCC(=O)O)NC(=O)[C@H](CC(=O)O)NC(C)=O)[C@@H](C)CC)C(C)C)C(=O)N[C@@H](C)c1ccccc1 [Compound 219] (Ac-D[dE]IV[Hyp](Bn)[X7]-{NH(1S-phenylethyl)}),0.43,151,–
CCCN(NC(=O)[C@@H]1C[C@@H](OCc2ccccc2)CN1C(=O)[C@@H](NC(=O)[C@@H](NC(C)=O)C1CCCCC1)C(C)C)C(=O)N[C@@H](C)c1ccccc1 [Compound 215],45,5,–
"CCCC(NC(=O)[C@@H]1C[C@@H](OCc2ccccc2)CN1C(=O)[C@@H](NC(=O)[C@@H](NC(=O)[C@@H](CCC(=O)O)NC(=O)[C@H](CC(=O)O)NC(C)=O)[C@@H](C)CC)C(C)C)P(=O)(Oc1ccccc1)Oc1ccccc1 (single isomer, unassigned) [Compound 301]",–,–,"IC50 (human liver cathepsin B): > 300 µM; IC50 [3]: 3 µM; IC50 [1, 6]: 0.029 µM; IC50 [2]: < 0.6 µM; IC50 (human leukocyte elastase): < 0.6 µM"
CCCC(NC(=O)[C@@H]1C[C@@H](OCc2ccccc2)CN1C(=O)[C@@H](NC(=O)[C@@H](NC(=O)[C@@H](CCC(=O)O)NC(=O)[C@H](CC(=O)O)NC(C)=O)[C@@H](C)CC)C(C)C)C(=O)CCc1ccccc1 (stereo partly shown) [Compound 106] (Ac-D[dE]IV[Hyp](Bn)-X6),5.4,–,IC50 (human leukocyte elastase): 16 µM
CC[C@H](C)[C@H](NC(=O)[C@@H](CCC(=O)O)NC(=O)[C@H](CC(=O)O)NC(C)=O)C(=O)N[C@H](C(=O)N1C[C@H](OCc2ccccc2)C[C@H]1C(=O)NN(C)C(=O)N[C@@H](C)c1ccccc1)C(C)C [Compound 221] (Ac-D[dE]IV[Hyp](Bn)[AzaAla]-{NH(1S-phenylethyl)}),0.52,168,–
CCCN(NC(=O)[C@@H]1C[C@@H](OCc2ccccc2)CN1C(=O)[C@@H](NC(=O)[C@@H](NC(=O)[C@@H](CCC(=O)O)NC(=O)[C@H](CC(=O)O)NC(C)=O)[C@@H](C)CC)C(C)C)C(=O)CCc1ccccc1 [Compound 202] (Ac-D[dE]IV[Hyp](Bn)-X5),0.63,5.5,–
CCCN(NC(=O)[C@@H]1C[C@@H](OCc2ccccc2)CN1C(=O)[C@@H](NC(=O)[C@@H](NC(=O)[C@@H](CCC(=O)O)NC(=O)[C@H](CC(=O)O)NC(C)=O)[C@@H](C)CC)C(C)C)C(=O)CCc1nc(-c2ccccn2)no1 [Compound 232] (Ac-D[dE]IV[Hyp](Bn)-X21),3.2,–,–
"CCCC(NC(=O)[C@@H]1C[C@@H](OCc2ccccc2)CN1C(=O)[C@@H](NC(=O)[C@@H](NC(=O)[C@@H](CCC(=O)O)NC(=O)[C@H](CC(=O)O)NC(C)=O)[C@@H](C)CC)C(C)C)P(=O)(Oc1ccccc1)Oc1ccccc1 (single isomer, unassigned) [Compound 302]",–,–,"IC50 [1, 6]: 26 µM"
CCCN(NC(=O)[C@@H]1C[C@@H](OCc2ccccc2)CN1C(=O)[C@@H](NC(=O)[C@@H](NC(=O)[C@@H](CCC(=O)O)NC(=O)[C@H](CC(=O)O)NC(C)=O)[C@@H](C)CC)C(C)C)C(=O)OCc1ccccc1 [Compound 206] (Ac-D[dE]IV[Hyp](Bn)-X2),0.79,< 0.6,"IC50 [2, 4]: < 0.6 µM"
